Laboratory results as given in patent US10143748B2, “B-cell reduction using CD37-specific and CD20-specific binding molecules” (Emergent Product Development Seattle, LLC, priority 2005, dated 2018).

Legend:
Ramos B cells [1] = experiment: CDC assay, Ramos B cells with human serum complement, propidium iodide; assay type: cell-based; conditions: for CDC activity with human complement, single reagent: Ramos B cells, human serum
Method: (§1) The cells were incubated 60 minutes at 37° C. […] Samples were incubated 15 minutes at room temperature in the dark prior to analysis by flow cytometry using a FACsCalibur and CellQuest software (Becton Dickinson).
as §1

C1q = molecular target: T1, C1q (Homo sapiens, UniProt P02745+P02746+P02747); experiment: FITC C1q binding to reagent-coated Ramos B cells in normal human serum; conditions: normal human serum 1.25-10%, FIG. 3A
T1 construct: normal human serum (NHS, #A113, Quidel Corp., San Diego, Calif.); tissue Quidel Corp. A113; host or cells: normal human serum (purchased), added to reagent-coated Ramos B cells
Method: C1q binding studies were performed as previously described (Cragg et al., Blood 2004, 103:2738-2743). Briefly, Ramos B-cells in Iscoves media (#12440-053, Gibco/Invitrogen, Grand island, NY) with no serum were plated in 96-well V bottom plates at 5×10^5/well in 100 μl. Cells were incubated with reagents for 15 minutes at 37° C., and normal human serum (NHS, #A113, Quidel Corp., San Diego, Calif.) diluted in Iscoves was then added at a volume of 50 μl to each well for a final concentration of 10, 5, 2.5, or 1.25% human serum. Fifty μl of media was added to the control well. For cobra venom factor (CVF) experiments, CVF was added to human serum complement samples at 20 Units CVF/mL of serum for 90 minutes at 37° C. prior to addition of serum to complement assays, and the dilution of serum by CVF accounted for when making sample dilutions.
The cells plus complement source were incubated for an additional 5 minutes at 37° C., and washed 2 times with cold PBS (#14040-133, Gibco/Invitrogen, Grand Island, N.Y.) via centrifugation and resuspended in 100 μl of PBS. Fifty μl from each well was transferred to a second plate for second step control staining. […] Samples were washed, resuspended in cold PBS, and read immediately on a FACsCalibur flow cytometer and analyzed with Cell Quest software (Becton Dickinson, San Jose, Calif.).

CD37 = molecular target: T2, CD37 (Homo sapiens, UniProt P11049); experiment: binding of TRU-016 SEC fractions to Ramos cells, flow cytometry; set-up: Ramos cells expressing the CD20 and CD37 target antigens; endogenous in cells; host or cells: Ramos B-cell lymphoma line; conditions: FITC goat anti-human IgG, FIG. 5A
T2 sequence (P11049 1-281): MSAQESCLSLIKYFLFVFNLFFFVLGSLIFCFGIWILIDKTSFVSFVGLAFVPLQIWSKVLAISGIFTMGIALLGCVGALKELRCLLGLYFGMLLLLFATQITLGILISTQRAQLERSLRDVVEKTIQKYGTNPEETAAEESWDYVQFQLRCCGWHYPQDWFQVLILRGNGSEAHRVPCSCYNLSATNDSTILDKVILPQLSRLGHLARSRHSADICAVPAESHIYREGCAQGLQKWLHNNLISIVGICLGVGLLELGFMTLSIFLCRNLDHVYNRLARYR
Method: To determine the binding properties of SEC fractions, cells were suspended in staining media at a concentration of approximately 4×10^6 cells/mL and then plated at 50 μl/well (2×10^5 cells/well) in staining media. Serial dilutions of SEC fractions were then added to sequential wells, incubated for 45 minutes, washed, and binding activity was detected using FITC goat anti-human IgG. Samples were fixed in 200 μl 1% paraformaldehyde in PBS. Cells were analyzed by flow cytometry on a FACsCalibur instrument using Cell Quest software (BD Biosciences, San Jose, Calif.) (FIG. 5A).

BJAB B cells = experiment: ADCC 51Cr release assay, BJAB targets, human PBMC effectors; assay type: cell-based; conditions: 10 ng/mL to 20 μg/mL, effector:target 25:1, 6 hours, FIG. 5C
Method: To determine the ADCC activity of SEC fractions, BJAB, Ramos, and Daudi lymphoblastoid B cells (10^7) cells were labeled with 500 μCi/mL ^51Cr sodium chromate for 2 hours at 37° C. in IMDM/10% FBS. PBMCs were isolated from heparinized, human whole blood by fractionation over Lymphocyte Separation Media (LSM, ICN Biomedical) gradients. Reagent samples were added to RPMI media with 10% FBS and five serial dilutions for each reagent were prepared. For combinations, the reagents were premixed and diluted prior to addition to the wells. The ^51Cr labeled BJAB were added at (2×10^4 cells/well). The PBMCs were then added at (5×10^5 cells/well) for a final ratio of 25:1 effectors (PBMC):targets (BJAB). […] CPM released was measured on a Packard TopCounNXT from 50 μl dried culture supernatant. Percent specific killing was calculated by subtracting (cpm [mean of quadruplicate samples] of sample—cpm spontaneous release)/(cpm maximal release-cpm spontaneous release)×100 (FIG. 5C).
BJAB, Ramos, and Daudi lymphoblastoid B cells (10E7) cells were labeled with 500 μCi/mL ^51Cr sodium chromate for 2 hours at 37° C. in IMDM/10% FBS. […] Cells were counted by trypan blue exclusion using a hemacytometer prior to use in subsequent assays. […]
Effectors and targets were added to media alone to measure background killing. […] CPM released was measured on a Packard TopCounNXT. […]

Ramos B cells [2] = experiment: CDC assay, Ramos B cells with rabbit complement; assay type: cell-based, human; conditions: 10 μg/ml reagent, rabbit complement 10, 5 or 2.5%, FIG. 3C
Method: Human and rabbit complement were then compared for their CDC activity in the presence of the TRU-016. The CDC activity of TRU-016 molecular forms incubated with Ramos B cells and human or rabbit complement was measured (FIG. 3C). Ramos B cells were added to wells in serum free media. […] Cells plus complement source were incubated 90 minutes at 37° C. Cells were washed once with cold PBS and propidium iodide (Molecular Probes #P3566) added to a final concentration of 0.5 μg/mL in cold PBS. Cells with PI were incubated in the dark at RT for 15 minutes and analyzed by flow cytometry.

Ramos cells = experiment: ADCC assay, labeled Ramos targets, human PBMC effectors; assay type: cell-based; conditions: effector to target ratio 25:1, FIG. 18D
Method: To determine the ADCC activity of SEC fractions, BJAB, Ramos, and Daudi lymphoblastoid B cells (10^7) cells were labeled with 500 μCi/mL ^51Cr sodium chromate for 2 hours at 37° C. in IMDM/10% FBS. PBMCs were isolated from heparinized, human whole blood by fractionation over Lymphocyte Separation Media (LSM, ICN Biomedical) gradients. Reagent samples were added to RPMI media with 10% FBS and five serial dilutions for each reagent were prepared. For combinations, the reagents were premixed and diluted prior to addition to the wells. The ^51Cr labeled BJAB were added at (2×10^4 cells/well). The PBMCs were then added at (5×10^5 cells/well) for a final ratio of 25:1 effectors (PBMC):targets (BJAB). Reactions were set up in quadruplicate wells of a 96 well plate. TRU-016 SEC fractions were added to wells at a final concentration ranging from 10 ng/mL to 20 μg/mL as indicated on the graphs. Each data series plots a different SEC fraction at the titration ranges described. Reactions were allowed to proceed for 6 hours at 37° C. in 5% CO2 prior to harvesting and counting. CPM released was measured on a Packard TopCounNXT from 50 μl dried culture supernatant. Percent specific killing was calculated by subtracting (cpm [mean of quadruplicate samples] of sample—cpm spontaneous release)/(cpm maximal release-cpm spontaneous release)×100 (FIG. 5C).

Daudi cells = experiment: Annexin V/PI apoptosis analysis, Daudi; assay type: cell-based, human
Method: Further experiments examining the effect of TRU-016 on B cell line apoptosis were performed using the more highly purified dimer form of TRU-016 (FIG. 19B). Samples were analyzed at both 24 and 48 hours after initiation of incubation reactions. Annexin/PI analysis was performed on several cell types using 20 μg/mL TRU-016 protein. Because apoptosis was reduced using the dimer form of TRU-016, 20 μg/mL goat anti-human IgG was added to reactions in order to cross link reagents on the cell surface. Cells were then stained with Annexin V-FITC and propidium iodide.

T1 sequence (P02745 23-245): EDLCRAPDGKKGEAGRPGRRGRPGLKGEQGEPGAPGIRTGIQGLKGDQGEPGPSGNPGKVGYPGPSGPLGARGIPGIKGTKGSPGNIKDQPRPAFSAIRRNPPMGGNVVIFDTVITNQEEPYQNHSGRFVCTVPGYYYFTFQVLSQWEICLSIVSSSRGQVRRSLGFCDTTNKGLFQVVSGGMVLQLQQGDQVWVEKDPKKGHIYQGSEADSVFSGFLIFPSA
T1 sequence (P02746 28-253): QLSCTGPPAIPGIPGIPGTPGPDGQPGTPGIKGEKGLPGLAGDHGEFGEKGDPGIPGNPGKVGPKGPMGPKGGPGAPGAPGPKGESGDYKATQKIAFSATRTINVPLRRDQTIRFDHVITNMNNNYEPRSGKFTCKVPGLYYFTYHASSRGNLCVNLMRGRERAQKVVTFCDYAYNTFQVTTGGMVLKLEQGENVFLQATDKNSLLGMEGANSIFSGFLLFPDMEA
T1 sequence (P02747 29-245): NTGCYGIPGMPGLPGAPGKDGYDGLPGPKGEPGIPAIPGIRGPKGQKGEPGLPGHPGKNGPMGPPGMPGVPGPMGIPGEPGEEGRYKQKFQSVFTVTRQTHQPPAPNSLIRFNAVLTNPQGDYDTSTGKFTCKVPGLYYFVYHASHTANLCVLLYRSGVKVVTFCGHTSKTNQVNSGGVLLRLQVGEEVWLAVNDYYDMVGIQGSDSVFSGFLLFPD

| Substance | CDC activity with human complement, single reagent (Ramos B cells [1]) | CDC cell killing in the presence of CVF (Ramos B cells [1]; human serum complement with cobra venom factor, FIG. 3B) | FITC C1q binding (C1q) | binding to Ramos cells (titration curves) (CD37) | ADCC, % specific killing (BJAB B cells) | CDC activity with rabbit complement (Ramos B cells [2]) | CDC activity with human complement, single reagent (Ramos B cells [1]; listed as dimer form of the TRU-016) | CDC activity with human complement, single reagent (Ramos B cells [1]; listed as dimer peak) | ADCC against Ramos cells (Ramos cells) | apoptosis of Daudi cells with crosslinking agent (Daudi cells; 20 μg/mL plus 20 μg/mL goat anti-human IgG) | apoptosis of Daudi cells (Daudi cells; 20 μg/mL, 24-48 hours, FIG. 19B) |
| --- | --- | --- | --- | --- | --- | --- | --- | --- | --- | --- | --- |
| HMW multimer fraction: higher molecular weight multimers of TRU-016 separated by SEC | significant levels of CDC activity | significantly reduced in the presence of CVF | more binding than the other forms | better binding | potent, dose-dependent ADCC |  |  |  |  |  |  |
| TRU-016 dimer peak: dimer form of TRU-016 isolated by GPC and HPLC fractionation from higher molecular weight multimers | poor mediator of CDC |  |  |  | potent, dose-dependent ADCC | good CDC | very low CDC activity | very little or no CDC activity | significant levels of ADCC | significant increase in the level of CD37 targeted apoptosis | induces apoptosis of Daudi cells |
